Drawing on ChEMBL document CHEMBL5625277, “Systematical mutational analysis of teriparatide on anti-osteoporosis activity by alanine scanning” (Bioorg Med Chem Lett, 2024), this text covers Activity for six compounds.

This data set can be described thus: Cytotoxicity in pre-osteoblasts (unknown origin) assessed as cell death upto 5 uM by CCK8 assay. The format is toxicity, cell-based. Particulars: pre-osteoblast. On the technique in general: Tetrazolium dyes change colour on reduction, which living cells bring about.

As for `CC[C@H](C)[C@H](NC(=O)[C@H](CCC(=O)O)NC(=O)[C@H](CO)NC(=O)[C@@H](NC(=O)[C@H](CO)NC(C)=O)C(C)C)C(=O)N[C@@H](CCC(N)=O)C(=O)N[C@@H](CC(C)C)C(=O)N[C@@H](CCSC)C(=O)N[C@@H](C)C(=O)N[C@@H](CC(N)=O)C(=O)N[C@@H](CC(C)C)C(=O)NCC(=O)N[C@@H](CCCCN)C(=O)N[C@@H](Cc1cnc[nH]1)C(=O)N[C@@H](CC(C)C)C(=O)N[C@@H](CC(N)=O)C(=O)N[C@@H](CO)C(=O)N[C@@H](CCSC)C(=O)N[C@@H](CCC(=O)O)C(=O)N[C@@H](CCCNC(=N)N)C(=O)N[C@H](C(=O)N[C@@H](CCC(=O)O)C(=O)N[C@@H](Cc1c[nH]c2ccccc12)C(=O)N[C@@H](CC(C)C)C(=O)N[C@@H](CCCNC(=N)N)C(=O)N[C@@H](CCCCN)C(=O)N[C@@H](CCCCN)C(=O)N[C@@H](CC(C)C)C(=O)N[C@@H](CCC(N)=O)C(=O)N[C@@H](CC(=O)O)C(=O)N[C@H](C(=O)N[C@@H](Cc1cnc[nH]1)C(=O)N[C@@H](CC(N)=O)C(=O)N[C@@H](Cc1ccccc1)C(N)=O)C(C)C)C(C)C`, the Activity result was “Non-Toxic”.
Turning to `CC[C@H](C)[C@H](NC(=O)[C@H](CCC(=O)O)NC(=O)[C@H](CO)NC(=O)[C@@H](NC(=O)[C@H](CO)NC(C)=O)C(C)C)C(=O)N[C@@H](CCC(N)=O)C(=O)N[C@@H](CC(C)C)C(=O)N[C@@H](CCSC)C(=O)N[C@@H](Cc1cnc[nH]1)C(=O)N[C@@H](CC(N)=O)C(=O)N[C@@H](CC(C)C)C(=O)NCC(=O)N[C@@H](CCCCN)C(=O)N[C@@H](Cc1cnc[nH]1)C(=O)N[C@@H](CC(C)C)C(=O)N[C@@H](CC(N)=O)C(=O)N[C@@H](CO)C(=O)N[C@@H](C)C(=O)N[C@@H](CCC(=O)O)C(=O)N[C@@H](CCCNC(=N)N)C(=O)N[C@H](C(=O)N[C@@H](CCC(=O)O)C(=O)N[C@@H](Cc1c[nH]c2ccccc12)C(=O)N[C@@H](CC(C)C)C(=O)N[C@@H](CCCNC(=N)N)C(=O)N[C@@H](CCCCN)C(=O)N[C@@H](CCCCN)C(=O)N[C@@H](CC(C)C)C(=O)N[C@@H](CCC(N)=O)C(=O)N[C@@H](CC(=O)O)C(=O)N[C@H](C(=O)N[C@@H](Cc1cnc[nH]1)C(=O)N[C@@H](CC(N)=O)C(=O)N[C@@H](Cc1ccccc1)C(N)=O)C(C)C)C(C)C`, the Activity entry is reported as “Non-Toxic”.
On to `CC[C@H](C)[C@H](NC(=O)[C@H](CCC(=O)O)NC(=O)[C@H](CO)NC(=O)[C@@H](NC(=O)[C@H](CO)NC(C)=O)C(C)C)C(=O)N[C@@H](CCC(N)=O)C(=O)N[C@@H](CC(C)C)C(=O)N[C@@H](CCSC)C(=O)N[C@@H](Cc1cnc[nH]1)C(=O)N[C@@H](CC(N)=O)C(=O)N[C@@H](CC(C)C)C(=O)NCC(=O)N[C@@H](CCCCN)C(=O)N[C@@H](Cc1cnc[nH]1)C(=O)N[C@@H](CC(C)C)C(=O)N[C@@H](CC(N)=O)C(=O)N[C@@H](CO)C(=O)N[C@@H](CCSC)C(=O)N[C@@H](CCC(=O)O)C(=O)N[C@@H](CCCNC(=N)N)C(=O)N[C@H](C(=O)N[C@@H](CCC(=O)O)C(=O)N[C@@H](Cc1c[nH]c2ccccc12)C(=O)N[C@@H](CC(C)C)C(=O)N[C@@H](CCCNC(=N)N)C(=O)N[C@@H](CCCCN)C(=O)N[C@@H](CCCCN)C(=O)N[C@@H](CC(C)C)C(=O)N[C@@H](CCC(N)=O)C(=O)N[C@@H](CC(=O)O)C(=O)N[C@H](C(=O)N[C@@H](Cc1cnc[nH]1)C(=O)N[C@@H](C)C(=O)N[C@@H](Cc1ccccc1)C(N)=O)C(C)C)C(C)C`, for which the Activity entry was “Non-Toxic”.
For `CC[C@H](C)[C@H](NC(=O)[C@H](CCC(=O)O)NC(=O)[C@H](C)NC(=O)[C@@H](NC(=O)[C@H](CO)NC(C)=O)C(C)C)C(=O)N[C@@H](CCC(N)=O)C(=O)N[C@@H](CC(C)C)C(=O)N[C@@H](CCSC)C(=O)N[C@@H](Cc1cnc[nH]1)C(=O)N[C@@H](CC(N)=O)C(=O)N[C@@H](CC(C)C)C(=O)NCC(=O)N[C@@H](CCCCN)C(=O)N[C@@H](Cc1cnc[nH]1)C(=O)N[C@@H](CC(C)C)C(=O)N[C@@H](CC(N)=O)C(=O)N[C@@H](CO)C(=O)N[C@@H](CCSC)C(=O)N[C@@H](CCC(=O)O)C(=O)N[C@@H](CCCNC(=N)N)C(=O)N[C@H](C(=O)N[C@@H](CCC(=O)O)C(=O)N[C@@H](Cc1c[nH]c2ccccc12)C(=O)N[C@@H](CC(C)C)C(=O)N[C@@H](CCCNC(=N)N)C(=O)N[C@@H](CCCCN)C(=O)N[C@@H](CCCCN)C(=O)N[C@@H](CC(C)C)C(=O)N[C@@H](CCC(N)=O)C(=O)N[C@@H](CC(=O)O)C(=O)N[C@H](C(=O)N[C@@H](Cc1cnc[nH]1)C(=O)N[C@@H](CC(N)=O)C(=O)N[C@@H](Cc1ccccc1)C(N)=O)C(C)C)C(C)C`, the Activity result is reported as “Non-Toxic”.
`CC[C@H](C)[C@H](NC(=O)[C@H](CCC(=O)O)NC(=O)[C@H](CO)NC(=O)[C@@H](NC(=O)[C@H](CO)NC(C)=O)C(C)C)C(=O)N[C@@H](CCC(N)=O)C(=O)N[C@@H](CC(C)C)C(=O)N[C@@H](CCSC)C(=O)N[C@@H](Cc1cnc[nH]1)C(=O)N[C@@H](CC(N)=O)C(=O)N[C@@H](CC(C)C)C(=O)NCC(=O)N[C@@H](CCCCN)C(=O)N[C@@H](Cc1cnc[nH]1)C(=O)N[C@@H](CC(C)C)C(=O)N[C@@H](CC(N)=O)C(=O)N[C@@H](CO)C(=O)N[C@@H](CCSC)C(=O)N[C@@H](CCC(=O)O)C(=O)N[C@@H](CCCNC(=N)N)C(=O)N[C@H](C(=O)N[C@@H](CCC(=O)O)C(=O)N[C@@H](Cc1c[nH]c2ccccc12)C(=O)N[C@@H](CC(C)C)C(=O)N[C@@H](CCCNC(=N)N)C(=O)N[C@@H](CCCCN)C(=O)N[C@@H](CCCCN)C(=O)N[C@@H](CC(C)C)C(=O)N[C@@H](CCC(N)=O)C(=O)N[C@@H](CC(=O)O)C(=O)N[C@H](C(=O)N[C@@H](Cc1cnc[nH]1)C(=O)N[C@@H](CC(N)=O)C(=O)N[C@@H](C)C(N)=O)C(C)C)C(C)C`: the Activity entry is “Non-Toxic”.
Turning to `CC[C@H](C)[C@H](NC(=O)[C@H](CCC(=O)O)NC(=O)[C@H](CO)NC(=O)[C@@H](NC(=O)[C@H](CO)NC(C)=O)C(C)C)C(=O)N[C@@H](CCC(N)=O)C(=O)N[C@@H](CC(C)C)C(=O)N[C@@H](CCSC)C(=O)N[C@@H](Cc1cnc[nH]1)C(=O)N[C@@H](CC(N)=O)C(=O)N[C@@H](CC(C)C)C(=O)N[C@@H](C)C(=O)N[C@@H](CCCCN)C(=O)N[C@@H](Cc1cnc[nH]1)C(=O)N[C@@H](CC(C)C)C(=O)N[C@@H](CC(N)=O)C(=O)N[C@@H](CO)C(=O)N[C@@H](CCSC)C(=O)N[C@@H](CCC(=O)O)C(=O)N[C@@H](CCCNC(=N)N)C(=O)N[C@H](C(=O)N[C@@H](CCC(=O)O)C(=O)N[C@@H](Cc1c[nH]c2ccccc12)C(=O)N[C@@H](CC(C)C)C(=O)N[C@@H](CCCNC(=N)N)C(=O)N[C@@H](CCCCN)C(=O)N[C@@H](CCCCN)C(=O)N[C@@H](CC(C)C)C(=O)N[C@@H](CCC(N)=O)C(=O)N[C@@H](CC(=O)O)C(=O)N[C@H](C(=O)N[C@@H](Cc1cnc[nH]1)C(=O)N[C@@H](CC(N)=O)C(=O)N[C@@H](Cc1ccccc1)C(N)=O)C(C)C)C(C)C`, the Activity result was “Non-Toxic”.
